Data reported in patent US6503935B1, “Imidazoles and related compounds as α1A agonists” (Abbott Laboratories, priority 1998, dated 2003).
Where a name gives a salt, the structure may show the parent alone. Read-outs that look alike come from different tables or passages of the source.

Experiments:
[1] = molecular target: T1, α1b (hamster receptor expressed in mouse fibroblasts) (Mesocricetus auratus, UniProt P18841); test: Radioligand binding with [3H]-prazosin, α1b; settings: read-out: Radioligand Binding Ki α1b (Hamster)
T1 construct: expressed in transfected cells; host or cells: mouse fibroblasts
T1 sequence (P18841 1-515): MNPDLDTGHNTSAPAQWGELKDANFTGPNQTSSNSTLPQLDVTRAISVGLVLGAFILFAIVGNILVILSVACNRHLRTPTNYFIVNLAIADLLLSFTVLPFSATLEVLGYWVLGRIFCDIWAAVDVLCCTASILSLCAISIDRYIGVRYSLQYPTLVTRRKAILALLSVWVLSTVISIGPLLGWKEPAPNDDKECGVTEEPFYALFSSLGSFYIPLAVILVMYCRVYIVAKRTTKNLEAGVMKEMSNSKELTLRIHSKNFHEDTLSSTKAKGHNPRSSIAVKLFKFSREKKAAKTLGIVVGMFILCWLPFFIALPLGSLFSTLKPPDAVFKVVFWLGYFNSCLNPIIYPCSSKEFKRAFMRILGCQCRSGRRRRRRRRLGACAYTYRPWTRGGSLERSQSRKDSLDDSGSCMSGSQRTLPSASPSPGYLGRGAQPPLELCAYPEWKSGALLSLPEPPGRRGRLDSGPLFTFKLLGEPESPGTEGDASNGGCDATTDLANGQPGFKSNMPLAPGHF
Method in brief: (§1)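 Radioligand binding with [3H]-prazosin: α1A from rat submaxillary gland; α1b hamster receptor and α1d rat receptor, each expressed in mouse fibroblasts.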

[2] = molecular target: T2, α1D (rat aorta) (Rattus norvegicus, UniProt P23944); test: Agonist contraction of smooth muscle tissue, rat aorta; assay type: cell-based; settings: read-out: Agonist Tissue Response (pD2) α1D (rat aorta) (converted)
T2 construct: α1B (rat spleen) and α1D (rat aorta) receptors; from tissue; host or cells: rat aorta strips, endothelium removed
T2 sequence (P23944 1-561): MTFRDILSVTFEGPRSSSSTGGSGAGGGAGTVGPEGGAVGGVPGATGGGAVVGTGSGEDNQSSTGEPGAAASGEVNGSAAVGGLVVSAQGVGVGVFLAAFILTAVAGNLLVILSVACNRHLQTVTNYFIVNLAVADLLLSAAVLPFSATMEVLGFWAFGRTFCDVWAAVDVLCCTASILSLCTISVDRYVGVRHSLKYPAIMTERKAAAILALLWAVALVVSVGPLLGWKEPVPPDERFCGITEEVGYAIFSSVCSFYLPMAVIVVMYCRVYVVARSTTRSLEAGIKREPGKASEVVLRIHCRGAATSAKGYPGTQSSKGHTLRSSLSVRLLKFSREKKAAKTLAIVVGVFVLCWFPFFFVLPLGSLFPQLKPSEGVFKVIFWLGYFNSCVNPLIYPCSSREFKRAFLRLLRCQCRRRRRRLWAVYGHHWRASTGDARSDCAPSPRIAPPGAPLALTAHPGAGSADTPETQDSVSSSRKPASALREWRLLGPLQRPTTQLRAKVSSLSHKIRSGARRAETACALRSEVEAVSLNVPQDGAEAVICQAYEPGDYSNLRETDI

[3] = molecular target: T3, α1d (rat receptor expressed in mouse fibroblasts) (Rattus norvegicus, UniProt P23944); test: Radioligand binding with [3H]-prazosin, α1d; settings: read-out: Radioligand Binding Ki α1d (Rat)
T3 construct: expressed in transfected cells; host or cells: mouse fibroblasts
T3 sequence (P23944 1-561): T2 sequence (P23944 1-561)
Method in brief: as §1

[4] = molecular target: T4, α1B (rat spleen) (Rattus norvegicus, UniProt P15823); test: Agonist contraction of smooth muscle tissue, rat spleen; assay type: cell-based; settings: read-out: Agonist Tissue Response (pD2) α1B (rat spleen) (converted)
T4 construct: α1B (rat spleen) and α1D (rat aorta) receptors; from tissue; host or cells: rat spleen
T4 sequence (P15823 1-515): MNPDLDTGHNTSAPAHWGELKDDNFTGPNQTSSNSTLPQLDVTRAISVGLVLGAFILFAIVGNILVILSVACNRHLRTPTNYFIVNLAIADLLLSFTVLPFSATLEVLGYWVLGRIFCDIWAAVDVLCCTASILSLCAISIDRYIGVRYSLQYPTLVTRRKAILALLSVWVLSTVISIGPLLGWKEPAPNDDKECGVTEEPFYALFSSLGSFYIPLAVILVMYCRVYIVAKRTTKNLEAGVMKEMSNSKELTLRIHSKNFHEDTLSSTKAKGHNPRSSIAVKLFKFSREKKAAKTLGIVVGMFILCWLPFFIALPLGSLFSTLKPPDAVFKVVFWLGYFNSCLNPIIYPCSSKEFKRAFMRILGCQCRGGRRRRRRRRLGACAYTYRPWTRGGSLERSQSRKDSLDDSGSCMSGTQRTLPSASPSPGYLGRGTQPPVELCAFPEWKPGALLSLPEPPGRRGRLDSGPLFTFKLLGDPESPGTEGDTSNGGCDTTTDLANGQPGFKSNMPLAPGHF

[5] = molecular target: T5, α1A (rat epididymal vas deferens) (Rattus norvegicus, UniProt P43140); test: cell-based; settings: rat epididymal vas deferens (values marked *); read-out: Agonist Tissue Response (pD2) α1A, test performed using rat epididymal vas deferens (converted)
T5 sequence (P43140 1-466): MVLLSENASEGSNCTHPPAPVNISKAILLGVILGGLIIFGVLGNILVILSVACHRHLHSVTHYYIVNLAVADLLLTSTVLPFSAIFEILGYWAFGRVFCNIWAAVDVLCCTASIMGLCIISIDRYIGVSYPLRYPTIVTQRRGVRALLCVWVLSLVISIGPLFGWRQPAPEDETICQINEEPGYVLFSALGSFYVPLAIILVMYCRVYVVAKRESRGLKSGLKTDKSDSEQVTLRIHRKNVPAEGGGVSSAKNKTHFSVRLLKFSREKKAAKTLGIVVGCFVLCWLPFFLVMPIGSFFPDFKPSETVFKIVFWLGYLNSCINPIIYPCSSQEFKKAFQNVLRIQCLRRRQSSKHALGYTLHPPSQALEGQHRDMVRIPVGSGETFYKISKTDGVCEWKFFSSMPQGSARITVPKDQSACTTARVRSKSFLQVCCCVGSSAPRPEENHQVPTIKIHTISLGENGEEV

[6] = molecular target: T6, α1A (rat submaxillary gland) (Rattus norvegicus, UniProt P43140); test: Radioligand binding with [3H]-prazosin, α1A
T6 construct: α1A (rat submaxillary gland); from tissue; host or cells: rat submaxillary gland
T6 sequence (P43140 1-466): T5 sequence (P43140 1-466)
Method in brief: as §1

[7] = system: Anesthetized Dogs; test: Urethral pressure profile in anesthetized dogs; assay type: in vivo, dog; settings: increasing iv doses, FIG. 1
Source text: Assessment of Urethral Pressure Profile in Anesthetized Dogs
Dogs instrumented and anesthetized as decribed above were placed in left lateral recumbency and a dual pressure sensor catheter (SPC-771, Millar Instruments, Houston, Tex.) was inserted into the urethra and advanced into the bladder. The proximal pressure sensor was interfaced to a MI2 computerized data acquisition system for the measurement of lower urinary tract pressures. At a resting intravesical pressure of approximately 5 cm of H2O, urethral pressure was measured from the sensor as the catheter was withdrawn using a modified syringe pump (Model 22, Harvard Apparatus, South Natick, Mass.) at its maximal rate of 0.83 mm/sec. Measurement from the proximal sensor allowed easy reinsertion as the distal 5 cm of the catheter remains in the urethra after the total profile has been obtained. Three resting urethral pressure profiles were obtained at 5 minute intervals before dosing, then a single profile was initiated 30 sec after each increasing iv dose during the time corresponding to the maximum arterial pressure effects of that dose. The increase in arterial pressure seen after each agonist dose was allowed to return to baseline before the next dose was given.

[8] = system: Anesthetized Dogs; test: Intraurethral pressure (IUP) in anesthetized dogs; assay type: in vivo, dog; settings: Canis lupus familiaris; iv dose causing a maximum increase in IUP of 5 mm Hg, anesthetized female dogs; read-out: Mean IUP ED5
[9] = system: Anesthetized Dogs; test: Mean arterial pressure (MAP) in anesthetized dogs; assay type: in vivo, dog; settings: iv dose causing a maximum increase in MAP of 20 mm Hg, anesthetized female dogs
Source text: In vivo Functional Assays-Assessment of Intrurethral Pressure (IUP) and Mean Arterial Pressure (MAP) in Anesthetized Dogs
Female dogs (Marshall Farms, North Rose, N.Y.) greater that 2 years of age and weighing between 12 and 15 kg were used in these studies. At least 2 weeks prior to any agonist dosing, dogs were instrumented for the chronic measurement of arterial blood pressure by implanting a telemetry transducer/transmitter (TA11PA-C40, Data Sciences International, St. Paul, Minn.) into a carotid artery.
On the test day, dogs fasted since the previous afternoon were pre-anesthetized with thiopental sodium 15 mg/kg i.v. (Pentothal™, Abbott) and intubated. Anesthesia was maintained by allowing the dog to spontaneously breathe a mixture of isoflurane (2.5 to 3 volume %) and oxygen delivered by a Narkomed Standard anesthesia system (North American Drager, Telford, Pa.). An Abbocath-T™ i.v. catheter (18-G, Abbott) was inserted into the cephalic vein for the administration of agonists. A telemetry receiver (RA1310, DataSciences) was placed under the head of each dog and was interfaced to a computerized data acquisition system (Modular Instruments Inc.(MI2), Malvern, Pa.) which allowed for the continuous calibrated recording of arterial blood pressure which was electronically filtered to determine its mean value (MAP).
Dogs with chronic telemetry implants anesthetized as described above were placed in dorsal recumbency and a balloon catheter was inserted into the urethral orifice and advanced approximately 15 cm until the tip was well inside the bladder. The balloon was then inflated with 1 ml of room air and the catheter slowly withdrawn until resistance (corresponding to the bladder neck) was evident. The balloon was then deflated and the catheter withdrawn an additional 2 cm. The balloon was then reinflated and its catheter port connected to a Gould Statham P23Dd pressure transducer interfaced to a computerized data acquisition system (Modular Instruments, Inc., Malvern, Pa.) for the measurement of intraurethral pressure. Increasing iv doses of test agonists were administered and the maximum effect of each dose on IUP was recorded. The effect of each dose was allowed to return to baseline before the next dose was given.
From the resulting dose response curve, an ED5 value, for the dose causing a maximum increase in IUP of 5 mm Hg, could be estimated. An ED20 value for the dose causing a maximum increase in MAP of 20 mm Hg could also be estimated. A selectivity ratio of MAP ED20 vs. IUP ED5 was calculated.

Compound	Ki [1]	EC50 [2]	Ki [3]	EC50 [4]	EC50 [5]	Ki [6]	Ki ([1]; hamster receptor expressed in mouse fibroblasts, [3H]-prazosin)	EC50 ([2]; rat aorta, endothelium removed)	Ki ([3]; rat receptor expressed in mouse fibroblasts, [3H]-prazosin)	EC50 ([4]; rat spleen)	Ki ([6]; rat submaxillary gland, [3H]-prazosin)	urethral pressure profile [7]	ED (5 mmHg IUP increase) [8]	Mean MAP ED20 [9]
COc1ccc2c(c1NS(C)(=O)=O)CCCC2c1c[nH]cn1 (stereo not drawn) [Example 1, N-[5-(1H-imidazol-4-yl)-2-methoxy-5,6,7,8-tetrahydro-1-naphthalenyl]methanesulfonamide, hydrochloride]	1.7 µM	5.5 µM	0.482 µM	955 µM	> 1000 µM	500 nM	–	–	–	–	–	–	–	–
Cc1nc(C2CCCc3c2ccc(O)c3NS(C)(=O)=O)c[nH]1 (stereo not drawn) [Example 3, N-[2-hydroxy-5-(2-methyl-1H-imidazol-4-yl)-5,6,7,8-tetrahydro-1-naphthalenyl]methanesulfonamide, hydrochloride]	–	–	–	–	1.95 µM	–	50.4 µM	28.2 µM	8.29 µM	12.9 µM	991 nM	–	–	–
Cn1cncc1C1CCCc2c1ccc(O)c2NS(C)(=O)=O (stereo not drawn) [Example 4, N-[2-hydroxy-5-(1-methyl-1H-imidazol-5-yl)-5,6,7,8-tetrahydro-1-naphthalenyl]methanesulfonamide, hydrochloride]	31.6 µM	95.5 µM	31.6 µM	> 1000 µM	309 µM	24600 nM	–	–	–	–	–	–	–	–
CS(=O)(=O)Nc1cccc2c1CCCC2c1c[nH]cn1.Cl (stereo not drawn) [Example 8, N-[5-(1H-imidazol-4-yl)-5,6,7,8-tetrahydro-1-naphthalenyl]methanesulfonamide, hydrochloride]	–	–	–	–	–	–	–	–	–	–	–	corresponding increases in the urethral pressure	0.0255 µmol/kg	102 nmol/kg
